Results reported in PMC12637020, “Synthesis and biological evaluation of novel hydrazone derivatives for the treatment of Alzheimer's disease” (RSC Advances, 2025).

Columns and labels:
[1] = target: AChE enzyme (Homo sapiens, UniProt P22303); assay: biochemical; type: biochemical; details: for inhibition at 1000 µM: read-out: AChE% inhibition 10^−3 M; for inhibition at 100 µM: read-out: AChE% inhibition 10^−4 M; for IC50: tested at 10 to 0.001 µM; for inhibitory activity: at concentrations of 1000 and 100 µM
Description: (§1) The assay was completed in two steps.
(§2) The potential inhibitory effects of the obtained molecules on the AChE and BChE enzymes was examined using a variation of the Ellman method.[31,33,41–43] Distilled water from the Millipore/Milli-Q purification apparatus was utilized at every stage of the biological activity investigations during the evaluation process. In less than a week, all the solutions required for the biological investigation were meticulously prepared from scratch. A “BioTek-Precision Power (United States)” robotic pipetting system was utilized to distribute the prepared solutions and apply the test compounds and enzyme–substrate solutions to 96-well plates. The “BioTek-Synergy H1 Microplate Reader (United States)” was employed to establish and follow the enzyme protocol for spectrophotometric measurements. Solutions of the compounds were prepared at two different concentrations, 10^−3 M and 10^−4 M, using dimethylsulfoxide (DMSO) as 2% solution, and these were used in biological activity studies.

[2] = target: BChE enzyme (Homo sapiens, UniProt P06276); assay: biochemical; details: for inhibition at 1000 µM: read-out: BChE% inhibition 10^−3 M; for inhibition at 100 µM: read-out: BChE% inhibition 10^−4 M
Description: as §1, §2

[3] = tested on: NIH/3T3 mouse embryonic fibroblast cell line; assay: MTT cytotoxicity test in NIH/3T3 cell line; type: cell-based; details: for Selectivity index: IC50 (NIH3T3)/IC50 (AChE); for IC50: Mus musculus, MTT, NIH3T3 fibroblast cells
Method: The IC50 values of the compounds were determined by nonlinear regression analysis, allowing the cytotoxic properties of the compounds to be interpreted. The molecules D1f and D1c were active against AChE enzymes.
For cytotoxicity tests, the NIH/3T3 mouse embryonic fibroblast cell line (ATCC® CRL-1658TM, London, UK) was employed. The supplier's recommendation served as the basis for the NIH/3T3 cells' incubation time. In each well of the 96-well plates, […] NIH/3T3 cells were planted. The MTT assay was performed in compliance with the previously mentioned standards.[29,35]

AChE enzyme, sequence (P22303 32-614): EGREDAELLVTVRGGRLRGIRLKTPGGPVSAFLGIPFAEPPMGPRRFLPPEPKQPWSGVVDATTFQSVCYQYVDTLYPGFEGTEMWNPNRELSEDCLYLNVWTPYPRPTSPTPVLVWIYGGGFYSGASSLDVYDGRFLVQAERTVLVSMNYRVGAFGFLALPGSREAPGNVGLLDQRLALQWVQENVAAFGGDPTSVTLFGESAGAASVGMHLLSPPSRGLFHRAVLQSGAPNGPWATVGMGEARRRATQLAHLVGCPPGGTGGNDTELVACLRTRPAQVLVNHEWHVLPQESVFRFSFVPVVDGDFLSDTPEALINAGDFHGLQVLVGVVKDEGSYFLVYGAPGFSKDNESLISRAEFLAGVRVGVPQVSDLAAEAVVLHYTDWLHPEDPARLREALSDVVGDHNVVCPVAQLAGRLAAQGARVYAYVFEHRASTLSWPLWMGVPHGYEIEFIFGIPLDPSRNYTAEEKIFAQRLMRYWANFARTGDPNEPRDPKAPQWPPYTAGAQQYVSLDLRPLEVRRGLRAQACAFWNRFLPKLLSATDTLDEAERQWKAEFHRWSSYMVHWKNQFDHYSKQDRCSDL
BChE enzyme, sequence (P06276 29-602, species assumed): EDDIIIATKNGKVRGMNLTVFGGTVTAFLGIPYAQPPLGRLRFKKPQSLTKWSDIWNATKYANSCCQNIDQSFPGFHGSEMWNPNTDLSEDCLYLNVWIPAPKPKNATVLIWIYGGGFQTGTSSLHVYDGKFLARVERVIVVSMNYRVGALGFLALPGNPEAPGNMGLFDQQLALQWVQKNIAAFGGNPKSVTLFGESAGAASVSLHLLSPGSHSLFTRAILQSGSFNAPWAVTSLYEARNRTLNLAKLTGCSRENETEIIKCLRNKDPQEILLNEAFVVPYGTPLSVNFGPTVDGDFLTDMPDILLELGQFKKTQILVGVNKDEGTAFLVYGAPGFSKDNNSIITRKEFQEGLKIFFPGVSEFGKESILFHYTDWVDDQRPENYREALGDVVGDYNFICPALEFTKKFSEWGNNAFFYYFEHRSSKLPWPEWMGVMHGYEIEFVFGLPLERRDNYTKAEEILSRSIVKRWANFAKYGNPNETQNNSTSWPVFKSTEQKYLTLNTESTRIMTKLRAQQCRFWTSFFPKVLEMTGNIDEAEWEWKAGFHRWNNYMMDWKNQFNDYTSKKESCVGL

| SMILES | inhibition at 1000 µM [1] [%] | inhibition at 100 µM [1] [%] | IC50 [1] [µM] | IC50 [2] [µM] | inhibition at 1000 µM [2] [%] | inhibition at 100 µM [2] [%] | Selectivity index [3] | IC50 [3] [µM] | inhibitory activity [1] |
| --- | --- | --- | --- | --- | --- | --- | --- | --- | --- |
| CCn1c(-c2ccc(C#N)cc2)csc1=NN=C(C)c1ccc(N2CCCCC2)cc1 [D3f, 4-(-3-Ethyl-2-((-1-(4-(piperidin-1-yl)phenyl)ethylidene)hydrazineylidene)-2,3-dihydrothiazol-4-yl)benzonitrile] | 57.4 ± 1.72 | 25.4 ± 0.856 | > 100 | > 1000 | 30.2 ± 1.05 | 21.1 ± 0.947 |  |  |  |
| C=CCn1c(-c2ccc(C)cc2C)csc1=N/N=C(\C)c1ccc(N2CCCCC2)cc1 [D2i, 3-Allyl-4-(2,4-dimethylphenyl)-2-(((E)-1-(4-(piperidin-1-yl)phenyl)ethylidene)hydrazineylidene)-2,3-dihydrothiazole] | 28.1 ± 1.25 | 20.5 ± 0.862 | > 1000 | > 1000 | 42.1 ± 2.02 | 28.7 ± 1.12 |  |  |  |
| CCn1c(-c2ccc(OC)cc2)csc1=NN=C(C)c1ccc(N2CCCCC2)cc1 [D3e, 3-Ethyl-4-(4-methoxyphenyl)-2-((1-(4-(piperidin-1-yl)phenyl)ethylidene)hydrazineylidene)-2,3-dihydrothiazole] | 34.1 ± 1.57 | 21.6 ± 0.926 | > 1000 | > 1000 | 36.3 ± 1.42 | 30.3 ± 0.956 |  |  |  |
| CC(=NN=c1scc(-c2ccc([N+](=O)[O-])cc2)n1C)c1ccc(N2CCCCC2)cc1 [D1c, 3-Methyl-4-(4-nitrophenyl)-2-((1-(4-(piperidin-1-yl)phenyl)ethylidene)hydrazineylidene)-2,3-dihydrothiazole] | 94.6 ± 2.35 | 90.3 ± 1.53 | 0.29 ± 0.01 | > 1000 | 24.4 ± 0.941 | 21.6 ± 0.852 | 8.310 | 2.41 ± 0.109 | more than 50% |
| C=CCn1c(-c2ccc(Cl)c(Cl)c2)csc1=N/N=C(\C)c1ccc(N2CCCCC2)cc1 [D2h, 3-Allyl-4-(3,4-dichlorophenyl)-2-(((E)-1-(4-(piperidin-1-yl)phenyl)ethylidene)hydrazineylidene)-2,3-dihydrothiazole] | 31.5 ± 1.04 | 20.3 ± 0.989 | > 1000 | > 1000 | 36.2 ± 1.36 | 31.5 ± 0.963 |  |  |  |
| CCn1c(-c2ccc(Cl)c(Cl)c2)csc1=NN=C(C)c1ccc(N2CCCCC2)cc1 [D3h, 4-(3,4-Dichlorophenyl)-3-ethyl-2-((1-(4-(piperidin-1 yl)phenyl)ethylidene)hydrazineylidene)-2,3-dihydrothiazole] | 28.4 ± 1.25 | 23.7 ± 0.969 | > 1000 | > 1000 | 38.7 ± 1.32 | 32.5 ± 1.13 |  |  |  |
| C=CCn1c(-c2ccc(Cl)cc2)csc1=NN=C(C)c1ccc(N2CCCCC2)cc1 [D2d, 3-Allyl-4-(4-chlorophenyl)-2-((1-(4-(piperidin-1 yl)phenyl)ethylidene)hydrazineylidene)-2,3-dihydrothiazole] | 31.2 ± 1.32 | 28 ± 0.884 | > 1000 | > 1000 | 30.5 ± 1.03 | 20 ± 0.926 |  |  |  |
| CCn1c(-c2ccc(C)cc2)csc1=NN=C(C)c1ccc(N2CCCCC2)cc1 [D3a, 3-Ethyl-2-((1-(4-(piperidin-1-yl)phenyl)ethylidene)hydrazineylidene)-4-(p-tolyl)-2,3-dihydrothiazole] | 56.2 ± 1.75 | 37.5 ± 0.921 | > 100 | > 1000 | 45.4 ± 2.09 | 25.3 ± 1 |  |  |  |
| CCn1c(-c2ccc(F)cc2)csc1=NN=C(C)c1ccc(N2CCCCC2)cc1 [D3b, 3-Ethyl-4-(4-fluorophenyl)-2-((1-(4-(piperidin-1-yl)phenyl)ethylidene)hydrazineylidene)-2,3-dihydrothiazole] | 40.2 ± 1.85 | 35.8 ± 1.25 | > 1000 | > 1000 | 32.6 ± 1.46 | 22.6 ± 0.964 |  |  |  |
| CCn1c(-c2ccc(Cl)cc2Cl)csc1=NN=C(C)c1ccc(N2CCCCC2)cc1 [D3g, 4-(2,4-Dichlorophenyl)-3-ethyl-2-((1-(4-(piperidin-1 yl)phenyl)ethylidene)hydrazineylidene)-2,3-dihydrothiazole] | 26.7 ± 1.15 | 20.9 ± 0.884 | > 1000 | > 1000 | 33.5 ± 1.26 | 26.8 ± 1.06 |  |  |  |
| C=CCn1c(-c2ccc(C#N)cc2)csc1=NN=C(C)c1ccc(N2CCCCC2)cc1 [D2f, 4-(3-Allyl-2-((1-(4-(piperidin-1-yl)phenyl)ethylidene)hydrazineylidene)-2,3-dihydrothiazol-4-yl)benzonitrile] | 76 ± 2.28 | 29.8 ± 1.26 | > 100 | > 1000 | 21.9 ± 0.855 | 16.5 ± 0.578 |  |  |  |
| C=CCn1c(-c2ccc(Cl)cc2Cl)csc1=NN=C(C)c1ccc(N2CCCCC2)cc1 [D2g, 3-Allyl-4-(2,4-dichlorophenyl)-2-((1-(4-(piperidin-1-yl)phenyl)ethylidene)hydrazineylidene)-2,3-dihydrothiazole] | 39.7 ± 1.88 | 31.6 ± 1.47 | > 1000 | > 1000 | 29.3 ± 1.35 | 24 ± 1.07 |  |  |  |
| C=CCn1c(-c2ccc(OC)cc2)csc1=NN=C(C)c1ccc(N2CCCCC2)cc1 [D2e, 3-Allyl-4-(4-methoxyphenyl)-2-((1-(4-(piperidin-1-yl)phenyl)ethylidene)hydrazineylidene)-2,3-dihydrothiazole] | 39.6 ± 1.76 | 25.3 ± 1.06 | > 1000 | > 1000 | 25.7 ± 0.963 | 17.2 ± 0.634 |  |  |  |
| C=CCn1c(-c2ccc(F)cc2)csc1=NN=C(C)c1ccc(N2CCCCC2)cc1 [D2b, 3-Allyl-4-(4-fluorophenyl)-2-((1-(4-(piperidin-1yl)phenyl)ethylidene)hydrazineylidene)-2,3-dihydrothiazole] | 47.2 ± 2.17 | 41.7 ± 1.96 | > 1000 | > 1000 | 38.2 ± 1.66 | 27.4 ± 1.25 |  |  |  |
| CC(=NN=c1scc(-c2ccc(Cl)cc2)n1C)c1ccc(N2CCCCC2)cc1 [D1d, 4-(4-Chlorophenyl)-3-methyl-2-((1-(4-(piperidin-1-yl)phenyl)ethylidene)hydrazineylidene)-2,3-dihydrothiazole] | 55.7 ± 2.08 | 29.6 ± 1.23 | > 100 | > 1000 | 23 ± 0.725 | 15.2 ± 0.734 |  |  |  |
| CC(=NN=c1scc(-c2ccc(C)cc2)n1C)c1ccc(N2CCCCC2)cc1 [D1a, 3-Methyl-2-((1-(4-(piperidin-1-yl)phenyl)ethylidene)hydrazineylidene)-4-(p-tolyl)-2,3-dihydrothiazole] | 40.5 ± 1.92 | 36.5 ± 1.72 | > 1000 | > 1000 | 32.5 ± 1.06 | 20.4 ± 0.984 |  |  |  |
| CC(=NN=c1scc(-c2ccc(C#N)cc2)n1C)c1ccc(N2CCCCC2)cc1 [D1f, 4-(-3-Methyl-2-((1-(4-(piperidin-1-yl)phenyl)ethylidene)hydrazineylidene)-2,3-dihydrothiazol-4-yl)benzonitrile] | 96.8 ± 2.09 | 91.2 ± 2.43 | 0.039 ± 0.001 | > 1000 | 29 ± 1.24 | 17 ± 0.784 | 85.231 | 3.32 ± 0.155 | more than 50% |
| C=CCn1c(-c2ccc(C)cc2)csc1=NN=C(C)c1ccc(N2CCCCC2)cc1 [D2a, 3-Allyl-2-((1-(4-(piperidin-1-yl)phenyl)ethylidene)hydrazineylidene)-4-(p-tolyl)-2,3-dihydrothiazole] | 38.6 ± 1.35 | 30.1 ± 1.45 | > 1000 | > 1000 | 30.8 ± 1.07 | 20.9 ± 0.802 |  |  |  |
